Measured values from patent US20200247808A1, “Heterocyclic Tec-Family Kinase Inhibitors” (GB005, Inc., priority 2015, published 2020).
Like-named read-outs stand apart in the source and are kept apart here.

Tests used:
splenocytes = test: Splenic cell proliferation assay (anti-IgM stimulated, Cell Titer-Glo); assay type: cell-based, mouse (CD1); conditions: Splenocyte; mouse splenocytes, 2.5 μg/ml anti-IgM F(ab')2, 72 h; read-out: Spleen cell EC50
Method: Proliferation of splenocytes in response to anti-IgM can be blocked by inhibition of BTK. Splenocytes were obtained from 6 week old male CD1 mice (Charles River Laboratories Inc.). Mouse spleens were manually disrupted in PBS and filtered using a 70um cell strainer followed by ammonium chloride red blood cell lysis. Cells were washed, resuspended in Splenocyte Medium (HyClone RPMI supplemented with 10% heat-inactivated FBS, 0.5X non-essential amino acids, 10 mM HEPES, 50 μM beta mercaptoethanol) and incubated at 37° C., 5% CO2 for 2h to remove adherent cells. Suspension cells were seeded in 96 well plates at 50,000 cells per well and incubated at 37° C., 5% CO2 for 1h. Splenocytes were pre-treated in triplicate with 10,000 nM curves of Formula 1 compounds for 1h, followed by stimulation of cell proliferation with 2.5 μg/ml anti-IgM
F(ab′)2 (Jackson ImmunoResearch) for 72 h. Cell proliferation was measured by Cell Titer-Glo Luminescent Assay (Promega). EC50 values (50% proliferation in the presence of compound as compared to vehicle treated controls) were calculated from dose response compound curves using GraphPad Prism Software.

[1] = Formation of glutathione adducts (GSH reactivity, HPLC-UV); assay type: in vitro ADME; conditions: 10 mM GSH, 20 micromolar test article, pH 7.4, 37° C.
Method: Generation of non-specific thiol adducts can be measured by assaying reactivity of compounds with GSH. Formation of GSH adducts was measured by incubating GSH (10 mM) in 100 mM Phosphate Buffer pH 7.4 with test article at 20 micromolar final concentration. Briefly, 600 microliters of phosphate buffer pH 7.4 was added in a glass vial with 200 microliters of 100 micromolar test article in DMSO. Samples were warmed at 37° C. for 10 minutes and the reaction was initiated by the addition of 200 microliters of 50 mM reduced GSH in phosphate buffer pH 7.4 and incubated at 37° C. At various time points (0.5 min, 5 min, 15 min, 30 min, 60 min, 120 min and 180 min) 50 microliter aliquots were placed into an injection vial equipped with an insert and mixed with 50 microliters of 1% formic acid in 99% Methanol. Vials were loaded onto the HPLC injection tray and each sample was injected onto a C18 column (ACE 3 C18, 4.6×50 mm column) and both the parent and product were monitored by UV absorbance at 254 nm on an Agilent Technologies 1100 series HPLC. Peaks were integrated and the percentage of product present calculated as the percent of the total peak area on the parent and product at 60 minutes.

[2] = Mouse plasma pharmacokinetics; assay type: in vivo, mouse (CD-1); conditions: male, CD-1, mouse, mice; for AUC / Cmax: free base; for bioavailability: oral 10 mg/kg vs intravenous 3 mg/kg
Method: Plasma pharmacokinetic studies were conducted in CD1 mice to compare the plasma exposure following oral and intravenous administration of the free-base form of each compound to mice and to calculate bioavailability. Male CD-1 mice (25-30 g on delivery; Charles River) were used for mouse PK studies. The mice were housed 3 per cage in a room under controlled conditions of temperature ([…]) and humidity (40-70%), with a 12 h dark/light cycle. The animals were acclimated for a minimum of 3 days prior to use and received standard rodent chow (Charles River) and municipal tap water ad libitum. Nine animals were used per study, they were dosed PO or IV and bled from the mandibular vein, 2 to 3 times per animal at the following time points; pre dose, 15 and 30 min, 1, 2, 3, 5, 7 and 24 h (0.1 mL whole blood /time point; composite PK). Blood was collected into microvette K3E tubes ([…]) at RT and then centrifuged at 5,000 RPM for 2 min at 4° C. in order to separate plasma. Isolated plasma (0.015 mL/time point) was pipetted into 96 well plates (Canadian Life Science) which were stored at minus 20° C. until analysis (2 duplicate plates per study).
Concentrations of compound in rodent plasma samples were determined by LC-MS-MS. Two standard curves containing 8 points each were prepared by spiking in methanol or plasma with a solution containing the test article at a defined concentration. The range of final compound concentration in the standard curve was 0 to 1 μg/mL. Three sets of quality control (QC) samples in plasma at low, medium and high concentration within the standard curve range were also prepared. For analysis, the compound was extracted using protein precipitation extraction procedure. Briefly, a three-fold volume of methanol containing an internal standard was added to the plasma and standard curve solution samples and then incubated at 4° C. for 5 minutes. The plates were centrifuged for 30 minutes at 4° C. at 4000 rpm and the resulting supernatant was transferred to a 96-well propylene plates and sealed with cover to avoid sample evaporation. Ten μL aliquots of extracted samples were injected using a 96-well plate autosampler held at 4° C. onto a ACE C18 50×4.6 mm, 3 um HPLC column held at 30° C. Plasma derived parent compound was eluted using the following conditions: pump flow rate was set at 1 mL/min for a five minutes chromatographic method using a 3 min gradient elution from 20% solvent A (0.1% formic acid in water) and 80% solvent B (0.1% Formic Acid in Methanol) to 10% solvent A and 90% solvent B. The method was followed by 1 min column wash at 95% solvent B and 1 min column re-equilibration back to 80% solvent B. Under these conditions the compound was eluted after 1.8 minutes. For LC-MS-MS compound detection, the curtain gas was set at 10, collision gas was set at 8, ion spray voltage was set at 4500, temperature was set at 500, ion source gas 1 was set at 40 and ion source gas 2 was set at 60. Using a positive ionization mode, the MRM transition monitored was set at […]. Under these conditions, standard curves were linear up to 2000 ng/mL, the lower limit of quantification was generally at 10 ng/mL.
The area under the curve (AUCtot and AUClast), the maximum plasma concentration (Cmax) and time (Tmax), and terminal half life (T1/2), clearance and volume of distribution were calculated by regression analysis using Kinetica version 5.0 (Thermo Fisher Scientific) using a Non-Compartmental Extravascular/IV Bolus analysis model.

EGFR = EGFR (Homo sapiens, UniProt P00533); test: Inhibition of cellular EGFR (EGF-stimulated EGFR autophosphorylation in MDA-468 cells); assay type: cell-based; design: MDA-468 human breast tumor cells which express functional EGFR; endogenous in cells; host or cells: MDA-468 human breast tumor cells; conditions: 1 h pretreatment, 10 ng/mL EGF 5 min, phospho-EGFR/EGFR ratio
Method: Cells were plated at a densitity of 400 000 cells/well in 6×12-well plates in a final volume of 1 ml/well in DMEM high glucose+10% FBS +1% Pen/Strep and cultured at 37 C and 5% CO2 overnight. The following day the media was replaced with serum free media and the cells were cultured for a further 24 hours.
Cells were pretreated with compound for 1 hour and then stimulated with 10 ng/mL EGF for 5 minutes. Media was removed and cells were lysed in 100 uL/well of RIPA buffer+1% Protease Inhibitor cocktail+1% Phosphatase inhibitor cocktail. Protein concentrations were determined by
BCA assay. 25μ of cellular protein from each cell treatment was separated by SDS-PAGE. Proteins were transferred to nitrocellulose membranes and blocked with TBS-T+5% non-fat milk. EGFR and phospho-EGFR were detected following incubation overnight at 4° C. with Rabbit anti-phospho-EGFR (Tyr1068) (Cell signaling) diluted 1/1000 and Mouse anti-EGFR (1F4) (Cell signaling) diluted 1/1000 in TBS-T+5% nonfat dry milk and then incubation for 1 h at RT with IR Dye 800CW goat anti-rabbit diluted 1/15000 and with IR Dye 680RD goat anti-mouse diluted 1/15000 in TBS-T+5% nonfat dry milk+0.01% SDS. Antibody binding was quatified using a Li-cor Odyssey CLx. Phospho-EGFR/EGFR ratios were calculated for each test condition of control and test article and the EC50 of inhibiton of EGF-stimulated EGFR phosphorylation was calculated.

[3] = intravenous 3 mg/kg, read-out: Intravenous AUC
[4] = oral 10 mg/kg, read-out: Oral AUC

Sequence of EGFR (P00533 25-1210): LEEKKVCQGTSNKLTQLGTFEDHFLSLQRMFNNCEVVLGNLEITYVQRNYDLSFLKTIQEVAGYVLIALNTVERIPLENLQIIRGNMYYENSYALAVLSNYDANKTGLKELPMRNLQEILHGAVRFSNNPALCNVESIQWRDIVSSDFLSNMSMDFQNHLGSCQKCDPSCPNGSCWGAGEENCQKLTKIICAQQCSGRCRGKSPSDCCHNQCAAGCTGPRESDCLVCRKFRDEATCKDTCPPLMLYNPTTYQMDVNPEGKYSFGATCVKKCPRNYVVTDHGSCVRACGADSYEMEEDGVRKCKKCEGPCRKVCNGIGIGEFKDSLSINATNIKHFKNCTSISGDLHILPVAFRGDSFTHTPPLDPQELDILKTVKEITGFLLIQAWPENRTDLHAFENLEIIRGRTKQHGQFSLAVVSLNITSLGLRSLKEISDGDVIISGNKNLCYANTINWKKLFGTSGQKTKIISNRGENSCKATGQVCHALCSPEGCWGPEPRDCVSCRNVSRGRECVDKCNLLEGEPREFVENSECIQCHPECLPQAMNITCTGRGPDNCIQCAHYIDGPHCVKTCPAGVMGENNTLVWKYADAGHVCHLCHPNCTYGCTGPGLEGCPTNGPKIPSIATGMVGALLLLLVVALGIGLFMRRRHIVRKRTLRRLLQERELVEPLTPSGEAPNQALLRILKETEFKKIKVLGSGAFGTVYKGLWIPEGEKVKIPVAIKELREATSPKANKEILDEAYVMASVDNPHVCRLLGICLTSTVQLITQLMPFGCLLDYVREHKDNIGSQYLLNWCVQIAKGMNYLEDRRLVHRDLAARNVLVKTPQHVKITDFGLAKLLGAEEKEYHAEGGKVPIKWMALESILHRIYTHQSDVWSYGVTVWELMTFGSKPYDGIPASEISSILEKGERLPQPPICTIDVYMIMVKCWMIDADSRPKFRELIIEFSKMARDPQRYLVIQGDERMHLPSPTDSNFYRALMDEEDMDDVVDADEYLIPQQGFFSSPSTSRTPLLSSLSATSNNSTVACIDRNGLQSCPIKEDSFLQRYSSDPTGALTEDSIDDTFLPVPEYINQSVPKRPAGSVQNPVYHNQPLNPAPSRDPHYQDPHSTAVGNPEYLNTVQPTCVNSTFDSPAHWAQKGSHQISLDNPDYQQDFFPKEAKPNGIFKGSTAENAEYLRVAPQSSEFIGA

Row | GSH Reactivity GSH Conjugate at 60 minutes [1] | AUC [2, 3] [µg·h/mL] | bioavailability [2] [%] | Cmax ([2]; oral 10 mg/kg) [µg/mL] | AUC [2, 4] [µg·h/mL] | EC50 (EGFR) [µM] | Compound | EC50 (splenocytes) [µM]
1 | 7.3 % of total Peaks | 0.841 | 52 | 1.28 | 1.45 | 5.96 | CC#CC(=O)N[C@H]1C[C@@H](n2nc(-c3ccc(Oc4ccccc4)cc3)c3c(N)ncnc32)C1 [Compound 1] | 0.0002
2 | 14.2 % of total Peaks | 0.954 | 45 | 1.35 | 1.44 | 0.376 | C=CC(=O)N[C@H]1C[C@@H](n2nc(-c3ccc(Oc4ccccc4)cc3)c3c(N)ncnc32)C1 [Compound 2] | 0.0003
